The subject of the data set is RBL-2H3 cells. Briefly: cells. The data set is classed as cell-based, rat. Conditions: for IC50: Rattus norvegicus. The gist of the method: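 RBL-2H3 rat basophils sensitized 12-16 h with anti-DNP IgE (0.5 μg/ml), pretreated 90 min at 37° C with compound (DMF 0.25% vehicle), then stimulated 45 min with DNP-BSA (50 ng ml^−1) or ionomycin (1.5 μM). Degranulation read as β-hexosaminidase release.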

The mark [1] stands for this setting: RBL-2H3 cells, read-out: Degran. IC50: concentration inhibiting mast cell degranulation by 50%.
Where [2] appears, read: RBL-2H3 cells, 0 to 40 μM, read-out: concentration inhibiting mast cell degranulation by 50% in vitro.

SMILES strings stand for the structures. Where two headings read alike, the source gives them in different places.

With `O=C(C1=C(O)C(=O)N(Cc2cccnc2)C1c1cccc(Oc2ccccc2)c1)c1ccc(Cl)cc1` (centres unmarked) [Molecule 1, 4-(4-chlorobenzoyl)-3-hydroxy-5-(3-phenoxyphenyl)-1-(3-pyridinylmethyl)-1,5-dihydro-2H-pyrrol-2-one], under setting [1], the IC50 was over 10 µg/mL.

Consider `COc1ccc(C2C(C(=O)c3cccs3)=C(O)C(=O)N2CCCn2ccnc2)c(OC)c1` (centres unmarked) [Molecule 2], for which the IC50 under setting [1] was over 10 µg/mL. With `CCOC(=O)C1=C(C)NC2=C(C(=O)c3ccccc32)C1c1cc(Br)ccc1OCC(=O)O` (centres unmarked) [Molecule 3, {4-bromo-2-[3-(ethoxy carbonyl)-2-methyl-5-oxo-4,5-dihydro-1H-indeno[1,2-b]pyridin-4-yl]phenoxy} acetic acid], the IC50 under setting [1] was over 10 µg/mL. `COc1cccc(C2C(C(=O)c3ccc(C)cc3)=C(O)C(=O)N2CCCN2CCOCC2)c1` (centres unmarked) [Molecule 4, 3-hydroxy-5-(3-methoxyphenyl)-4-(4-methylbenzoyl)-1-[3-(4-morpholinyl)propyl]-1,5-dihydro-2H-pyrrol-2-one]: the IC50 under setting [1] is over 10 µg/mL. For `CCOC(=O)c1ccc(N2C(=O)C(O)=C(C(=O)c3ccccc3)C2c2ccc(ON)cc2OC)cc1` (centres unmarked) [Molecule 6], the IC50 under setting [1] was over 10 µg/mL. On to `CCOC(=O)c1sc(N2C(=O)C(O)=C(C(=O)c3ccc(F)cc3)C2c2ccc(C)cc2)nc1C` (centres unmarked) [Molecule 10, ethyl 2-[3-(4-fluorobenzoyl)-4-hydroxy-2-(4-methylphenyl)-5-oxo-2,5-dihydro-1H-pyrrol-1-yl]-4-methyl-1,3-thiazole-5-carboxylate], for which the IC50 under setting [1] was about 10 µg/mL. On the same count and under the same terms, as for `COc1ccccc1C(=O)Nc1ccc(-c2nnc(SCC(=O)c3ccccc3)n2C)cc1` [Molecule 15, 2-methoxy-N-(4-(4-methyl-5-[(2-oxo-2-phenylethyl)thio]-4H-1,2,4-triazol-3-yl)phenyl)benzamide], the figure is about 2.5 µg/mL; as for `COc1ccc(C)cc1NC(=O)c1ccc(CN2CCC(Cc3ccccc3)CC2)cc1` [Molecule 17, 4-[(4-benzyl-1-piperidinyl)methyl}-N-(2-methoxy-5-methylphenyl)benzamide], over 10 µg/mL; as for `COc1ccc(S(=O)(=O)N(CCc2ccccc2)CC(=O)Nc2ccc(C(N)=O)cc2)cc1` [Molecule 18], over 10 µg/mL. As to `O=C(NCc1nnc(NCc2nc3ccccc3c(=O)[nH]2)n1-c1ccccc1)c1ccccc1F` [Molecule 29], the IC50 under setting [1] is about 10 µg/mL. On to `O=C(Nc1ccccc1)c1ccc(NCCN2CCOCC2)c(S(=O)(=O)N2CCOCC2)c1` [Molecule 46, 4-{[2-(4-morpholinyl)ethyl]amino}-3-(4-morpholinylsulphonyl)-N-phenylbenzamide], for which the IC50 under setting [1] was over 10 µg/mL. On the same count and under the same terms, as for `Cc1cc(C(=O)Nc2ccccc2C(=O)O)ccc1NC(=O)COc1ccc(C(C)C)cc1` [Molecule 49, 2-[(4-{[(4-isopropylphenoxy)acetyl]amino}-3-methylbenzoyl)amino] benzoic acid], the figure is about 10 µg/mL; as for `CCOC(=O)c1ccc(NC(=O)CSc2nnc(-c3ccco3)c(-c3ccco3)n2)cc1` [Molecule 54, ethyl 4-({[(5,6-di-2-furyl-1,2,4-triazin-3-yl)thio]acetyl}amino)benzoate], about 5 µg/mL. For the molecule `COc1cc(-c2nnc(SCC(=O)Nc3ccc(Cl)cc3)n2CCc2ccccc2)cc(OC)c1OC` [Molecule 59], the IC50 reads like this: under setting [2], about 5 µM; under setting [1], about 2 µg/mL. As to `CCOC(=O)c1ccc(NC(=O)CC2C(=O)N(c3ccc(Cl)cc3)C(=S)N2Cc2cccnc2)cc1` (centres unmarked) [Molecule 61], the IC50 under setting [2] was about 5 µM and the IC50 under setting [1] is about 2 µg/mL. With `C=CCn1c(SCC(=O)Nc2cccc(OC)c2)nnc1C(C)NC(=O)c1ccccc1` (centres unmarked) [Molecule 66, N-{1-[4-allyl-5-({2-[(3-methoxyphenyl)amino]-2-oxoethyl}thio)-4H-1,2,4-triazol-3-yl]ethyl} benzamide], the IC50 under setting [1] was about 5 µg/mL. On the same count and under the same terms, to `C=CCn1c(CNC(=O)c2cccc(C)c2)cnc1SCC(=O)Nc1cccc(C(=O)OC(C)C)c1` [Molecule 75] belongs about 5 µg/mL; to `CCn1c(CCC(=O)c2ccc(Cl)cc2)nnc1SCC(=O)Nc1ccc(Br)c(C)c1C` [Molecule 82], about 7 µg/mL. Consider `CCOc1ccc(NC(=O)CC2C(=O)N(c3ccc(OC)cc3)C(=S)N2CCN2CCOCC2)cc1` (centres unmarked) [Molecule 84, N-(4-ethoxyphenyl)-2-{1-(4-methoxyphenyl)-3-[2-(4-morpholinyl)ethyl]-5-oxo-2-thioxo-4-imidazolidinyl}acetamide], for which the IC50 under setting [1] was about 7 µg/mL. For the molecule `COC(=O)c1ccccc1-c1ccc(/C=C2/SC(=S)N(Cc3ccccc3)C2=O)o1` [Molecule C-13, methyl 2-{5-[(3-benzyl-4-oxo-2-thioxo-1,3-thiazolidin-5-ylidene)methyl]-2-furyl}benzoate], the ionomycin-induced degranulation result is reported as “not detectably affected”. Further, the IC50 (RBL-2H3, read-out: Degran. IC50: concentration inhibiting mast cell degranulation by 50%) turned out to be 1 µg/mL.

For the origin of these results see US9504676B2, “Molecules inhibiting a metabolic pathway involving the Syk protein tyrosine kinase and method for identifying said molecules” (CENTRE NATIONAL DE LA RECHERCHE SCIENTIFIQUE, priority 2008, dated 2016).
